The text below walks through data of patent US8067582B2 (Bristol-Myers Squibb Company, priority 2007, dated 2011).

Test [1] has as its target T1, androgen receptor (AR) (Homo sapiens, UniProt P10275).
T1 sequence (P10275 1-920): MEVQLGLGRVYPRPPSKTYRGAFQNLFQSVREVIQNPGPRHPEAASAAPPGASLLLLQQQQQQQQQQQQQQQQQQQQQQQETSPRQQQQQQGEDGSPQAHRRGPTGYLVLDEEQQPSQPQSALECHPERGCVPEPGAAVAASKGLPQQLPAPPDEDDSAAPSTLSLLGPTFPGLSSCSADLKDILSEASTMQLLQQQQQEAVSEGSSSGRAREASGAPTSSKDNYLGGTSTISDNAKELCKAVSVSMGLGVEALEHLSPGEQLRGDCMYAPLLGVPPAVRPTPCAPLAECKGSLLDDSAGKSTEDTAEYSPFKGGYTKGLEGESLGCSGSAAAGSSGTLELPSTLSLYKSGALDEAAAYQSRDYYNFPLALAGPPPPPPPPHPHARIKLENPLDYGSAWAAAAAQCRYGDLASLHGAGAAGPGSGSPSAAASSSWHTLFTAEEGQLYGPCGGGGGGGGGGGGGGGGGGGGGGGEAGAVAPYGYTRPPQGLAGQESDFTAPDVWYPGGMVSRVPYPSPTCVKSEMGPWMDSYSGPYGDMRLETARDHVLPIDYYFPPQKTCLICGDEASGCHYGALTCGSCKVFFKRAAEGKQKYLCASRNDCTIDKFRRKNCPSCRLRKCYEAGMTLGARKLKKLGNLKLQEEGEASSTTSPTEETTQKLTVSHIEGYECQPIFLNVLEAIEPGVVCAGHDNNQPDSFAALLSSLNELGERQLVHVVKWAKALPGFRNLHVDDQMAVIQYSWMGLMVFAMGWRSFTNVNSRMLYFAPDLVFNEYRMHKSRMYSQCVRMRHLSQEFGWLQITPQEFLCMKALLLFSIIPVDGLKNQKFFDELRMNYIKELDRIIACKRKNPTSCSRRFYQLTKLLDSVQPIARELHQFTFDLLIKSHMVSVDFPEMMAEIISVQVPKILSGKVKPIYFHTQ
The experiment in a line: MDA-MB-453 Androgen Receptor Transactivation Assay (PSA-Luc reporter, 3 nM DHT). The format is cell-based. Conditions: MDA-MB-453 cells, antagonism in presence of 3 nM DHT, 48 hour incubation. The source says:
Compounds can be tested in a cell based transactivation assay used to measure the antagonism of androgen receptor (AR) transcriptional activity. The transactivation assay provides a means of identifying antagonists that inhibit the effects of the native hormone dihydrotestosterone (DHT). […] The pGL3 PSA-Luc reporter plasmid is comprised of the cDNA for the firefly luciferase gene and the upstream promoter sequences containing the androgen response elements (AREs) of the prostate specific antigen (PSA). This plasmid functions as a reporter for the transcription-modulating activity of the AR. In order to detect antagonists, the transactivation assay is conducted in the presence of constant concentration of the natural AR hormone (DHT) to induce a defined reporter signal. Addition of increasing concentrations of the suspected antagonist will decrease the reporter signal (luciferase activity).
MDA-MB-453 and 22 RV1 cells were maintained in DMEM (Cellgro, Cat. #10-014-CM) or RPMI 1640 (Gibco Cat. #11875-085) respectively and supplemented with 10% FBS (Invitrogen/GIBCO Life Science). Cells were bulk transfected in flasks with 1.3 ug/ml pGL3 PSA-Luc plasmid by using the Lipofectamine 2000 Reagent (Invitrogen, Cat. #11668-019) and serum-free Opti-MEM I media (Invitrogen, Cat #31985-070) according to the manufacturer's optimized conditions. Transfection was conducted at 37° C. with 5% CO2 for 16-18 hours. Following transfection, cells are washed, treated with trypsin, counted, and seeded in a 96-well plate at 30,000 cells per well in DMEM containing 10% Charcoal/Dextran Treated Fetal Bovine Serum (Gibco Cat. #11054-020) for MDA-MB-453 cells or RPMI 1640 (Gibco Cat. #110835) containing 10% FBS (Invitrogen/GIBCO Life Science) for 22 RV1 cells.
Following transfection, cells were incubated in the absence (blank) or presence (control) of 3 nM DHT (Sigma, Cat. #A-8380) and in the presence or absence of the standard antiandrogen bicalutamide or test compounds ranging in concentrations from 10^−10 to 10^−5M. Duplicates were used for each sample. The compound dilutions were performed by the Tecan Genesis (Tecan, Triangle Park, N.C.). After a 48 hour incubation, luciferase activity was measured using the Steady-Glo Luciferase Assay System (Promega, Cat. #E2550) according to manufacturer's specifications and luminescence was measured on a Packard TopCount (PerkinElmer). For each luciferase sample reading, the percent control (in absence of compounds) was calculated as: % Control=100×[averagesample−averageblank]/[averagecontrol−averageblank] Data was plotted and the IC50 value was defined as the concentration of compound that inhibited 50% of the luciferase activity for the controls.
Compounds described herein were tested in the AR transactivation assay described immediately above, using MDA-MB-453 cells.

Test [2] relates to immature castrated male rats. Briefly: Immature Rat Prostate Weight (IRPW) Assay. The format is in vivo, rat (Sprague-Dawley). Conditions: Rattus norvegicus, 96 h, read-out: IRPW SV/FB (% control).
The mark [3] stands for this setting: immature castrated rats, 3 mpk PO QD × 4 days.

The IC50 is the point on the concentration scale where inhibition reaches its midpoint.

Where two headings read alike, the source gives them in different places.

Turning to `C#Cc1cc(N2C(=O)[C@H]3[C@H]4[C@@H]2OCC[C@@]42O[C@]3(C)C[C@@H]2O)ccc1C#N` [Example 62, 2-Ethynyl-4-((1R,2S,4R,5S,8S,12R)-2-hydroxy-4-methyl-6-oxo-9,13-dioxa-7-azatetracyclo[6.3.1.1^1,4.0^5,12]tridec-7-yl)benzonitrile], the concentration for half-maximal inhibition (IC50) in test [1] (read-out: IC50) was determined as 1920 nM. Further, in test [2] (setting [3]), the response vs control in vivo at 3 mg/kg came out at 108%.

As for `COC(=O)N[C@@H]1C[C@@]23CCO[C@H]4[C@@H]2[C@H](C(=O)N4c2ccc(C#N)c(C(F)(F)F)c2)[C@]1(C)O3` [Example 207, Methyl ((1R,3R,4S,5S,8S,12R)-7-(4-cyano-3-(trifluoromethyl)phenyl)-4-methyl-6-oxo-9,13-dioxa-7-azatetracyclo[6.3.1.1^1,4.0^5,12]tridec-3-yl)carbamate], the IC50 in test [1] is 54 nM. In addition, the response vs control in vivo at 3 mg/kg in test [2] (po) came to 37%.

For the molecule `COC(=O)N[C@H]1C[C@@]23CCO[C@H]4[C@@H]2[C@H](C(=O)N4c2ccc(Cl)c(C(F)(F)F)c2)[C@]1(C)O3` [Example 291, Methyl ((1R,3S,4S,5S,8S,12R)-7-(4-chloro-3-(trifluoromethyl)phenyl)-4-methyl-6-oxo-9,13-dioxa-7-azatetracyclo[6.3.1.1^1,4.0^5,12]tridec-3-yl)carbamate], the concentration for half-maximal inhibition (IC50) in test [1] (read-out: IC50) stood at 45 nM. Further, in test [2] (setting [3]), the response vs control in vivo at 3 mg/kg amounted to 35%.

Turning to `C[C@@]12C[C@H](O)[C@]3(CCO[C@H]4[C@@H]3[C@@H]1C(=O)N4c1ccc(C#N)c(Cl)c1)O2` [Example 119, 2-Chloro-4-((1R,2S,4R,5S,8S,12R)-2-hydroxy-4-methyl-6-oxo-9,13-dioxa-7-azatetracyclo[6.3.1.1^1,4.0^5,12]tridec-7-yl)benzonitrile], the IC50 in test [1] came out at 183 nM. The response vs control in vivo at 3 mg/kg in test [2] (po) worked out at 39%.

Regarding `C[C@]12O[C@@]3(CCO[C@H]4[C@@H]3[C@@H]1C(=O)N4c1ccc(C#N)c(C(F)(F)F)c1)C[C@@H]2O` [Example 156, 4-((1S,3S,4S,5S,8S,12R)-3-hydroxy-4-methyl-6-oxo-9,13-dioxa-7-azatetracyclo[6.3.1.1^1,4.0^5,12]tridec-7-yl)-2-(trifluoromethyl)benzonitrile], in test [1], the concentration for half-maximal inhibition (IC50) turned out to be 304 nM. For the same molecule, in test [2] (po), the response vs control in vivo at 3 mg/kg came to 64%.

For the molecule `C[C@@]12C[C@@H](O)[C@]3(CCO[C@H]4[C@@H]3[C@@H]1C(=O)N4c1ccc(C#N)c(C(F)(F)F)c1)O2` [Example 6, 4-((1R,2R,4R,5S,8S,12R)-2-hydroxy-4-methyl-6-oxo-9,13-dioxa-7-azatetracyclo[6.3.1.1^1,4.0^5,12]tridec-7-yl)-2-(trifluoromethyl)benzonitrile], in test [1], the half-maximal inhibitory concentration (IC50) amounted to 281 nM. Besides, the response vs control in vivo at 3 mg/kg in test [2] (po) came to 37%.

Take `Cc1cc(N2C(=O)[C@H]3[C@H]4[C@@H]2OCC[C@@]42O[C@]3(C)C[C@@H]2O)ccc1C#N` [Example 122, 4-((1R,2S,4R,5S,8S,12R)-2-hydroxy-4-methyl-6-oxo-9,13-dioxa-7-azatetracyclo[6.3.1.1^1,4.0^5,12]tridec-7-yl)-2-methylbenzonitrile]: in test [1] (read-out: IC50), the 50% inhibitory concentration (IC50) is 1710 nM. The response vs control in vivo at 3 mg/kg in test [2] (setting [3]) was found to be 90%.

Consider `C[C@@]12C[C@H](O)[C@]3(CCO[C@H]4[C@@H]3[C@@H]1C(=O)N4c1ccc(Cl)c(C#N)c1)O2` [Example 120, 2-Chloro-5-((1R,2S,4R,5S,8S,12R)-2-hydroxy-4-methyl-6-oxo-9,13-dioxa-7-azatetracyclo[6.3.1.1^1,4.0^5,12]tridec-7-yl)benzonitrile], for which the IC50 in test [1] (read-out: IC50) was 1650 nM. Further, in test [2] (setting [3]), the response vs control in vivo at 3 mg/kg is 80%.

With `C[C@]12O[C@@]3(CCO[C@H]4[C@@H]3[C@@H]1C(=O)N4c1cc(F)c(C#N)c(C(F)(F)F)c1)C[C@H]2O` [Example 139, 2-Fluoro-4-((1S,3R,4S,5S,8S,12R)-3-hydroxy-4-methyl-6-oxo-9,13-dioxa-7-azatetracyclo[6.3.1.1^1,4.0^5,12]tridec-7-yl)-6-(trifluoromethyl)benzonitrile], the IC50 in test [1] stood at 60 nM. Further, the response vs control in vivo at 3 mg/kg in test [2] (po) came out at 35%.

Consider `C[C@@]12CC[C@]3(CCO[C@H]4[C@@H]3[C@@H]1C(=O)N4c1ccc(C#N)c(C(F)(F)F)c1)O2` [Example 50, 4-((1R,4R,5S,8S,12R)-4-methyl-6-oxo-9,13-dioxa-7-azatetracyclo[6.3.1.1^1,4.0^5,12]tridec-7-yl)-2-(trifluoromethyl)benzonitrile], for which the 50% inhibitory concentration (IC50) in test [1] was 42 nM. Moreover, the response vs control in vivo at 3 mg/kg in test [2] (po) was 46%.

In the case of `C[C@]12O[C@@]3(CCO[C@H]4[C@@H]3[C@@H]1C(=O)N4c1ccc(C#N)c(C(F)(F)F)c1)C[C@H]2O` (single isomer, unassigned) [Example 1], the IC50 in test [1] is 177 nM. Further, the response vs control in vivo at 5 mg/kg in test [2] (po) is 54%.

As to `CO/N=C1\C[C@@]2(C)O[C@@]13CCO[C@H]1[C@@H]3[C@@H]2C(=O)N1c1ccc(C#N)c(C(F)(F)F)c1` [Example 30, 4-((1R,2E,4R,5S,8S,12R)-2-(methoxyimino)-4-methyl-6-oxo-9,13-dioxa-7-azatetracyclo[6.3.1.1^1,4.0^5,12]tridec-7-yl)-2-(trifluoromethyl)benzonitrile], the IC50 in test [1] is 31 nM. For the same molecule, in test [2] (po), the response vs control in vivo at 3 mg/kg came to 37%.

For the molecule `C[C@@]12C[C@H](NS(=O)(=O)CC(F)(F)F)[C@]3(CCO[C@H]4[C@@H]3[C@@H]1C(=O)N4c1ccc(C#N)c(Cl)c1)O2` [Example 185, N-((1R,2S,4R,5S,8S,12R)-7-(3-Chloro-4-cyanophenyl)-4-methyl-6-oxo-9,13-dioxa-7-azatetracyclo[6.3.1.1^1,4.0^5,12]tridec-2-yl)-2,2,2-trifluoroethanesulfonamide], the IC50 in test [1] stood at 147 nM. Besides, the response vs control in vivo at 3 mg/kg in test [2] (po) was found to be 31%.

In the case of `COC(=O)N[C@@H]1C[C@@]23CCO[C@H]4[C@@H]2[C@H](C(=O)N4c2cc(Cl)c(C#N)c(Cl)c2)[C@]1(C)O3` [Example 208, Methyl ((1R,3R,4S,5S,8S,12R)-7-(3,5-dichloro-4-cyanophenyl)-4-methyl-6-oxo-9,13-dioxa-7-azatetracyclo[6.3.1.1^1,4.0^5,12]tridec-3-yl)carbamate], the half-inhibitory concentration (IC50) in test [1] turned out to be 118 nM. Besides, in test [2] (po), the response vs control in vivo at 3 mg/kg was determined as 37%.

In the case of `C[C@@]12C[C@H](O)[C@]3(CCO[C@H]4[C@@H]3[C@@H]1C(=O)N4c1ccc(C#N)c(C(F)(F)F)c1)O2` (single isomer, unassigned) [Example 3], in test [1], the half-inhibitory concentration (IC50) was determined as 175 nM. The response vs control in vivo at 3 mg/kg in test [2] (po) was determined as 41%.
